Experimental data as given in paper PMC6170196 (Clinical pharmacology and therapeutics, 2012).
Like-named read-outs stand apart in the source and are kept apart here. Marks after values point to notes of the source that are not given here.

Type: in vivo, human
Conditions: flurbiprofen 100 mg oral, n=12
[1] = arithmetic mean, Fluconazole/ placebo
[2] = arithmetic mean, Pom extract/ placebo
[3] = arithmetic mean, Pom juice/ placebo
[4] = geometric mean, Fluconazole/ placebo
[5] = geometric mean, Pom extract/ placebo
[6] = geometric mean, Pom juice/ placebo

Cmax ratio [1]: 1.57 ^* | Total AUC ratio [1]: 2.04 ^* | Cmax ratio [2]: 1.08 | Total AUC ratio [2]: 1.09 | Cmax ratio [3]: 1.09 | Total AUC ratio [3]: 1.08 | Cmax ratio [4]: 1.47 | Total AUC ratio [4]: 1.97 | Cmax ratio [5]: 1.03 | Total AUC ratio [5]: 1.06 | Cmax ratio [6]: 1.03 | Total AUC ratio [6]: 1.05
SMILES: CC(C(=O)O)c1ccc(-c2ccccc2)c(F)c1 (stereo not drawn) [FLURBIPROFEN, Flurbiprofen]
